The series has as its system rodent carcinogenicity bioassays, tumor incidence. In words: CCRIS carcinogenicity studies. In short, it runs like this: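 NCI-built, expert-reviewed records of carcinogenicity and related test outcomes (mutagenicity, tumor promotion/inhibition) compiled from published and report sources, historical span 1985-2011, not updated.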

The structures appear in SMILES notation. Activity calls are given as the source filed them. How the calls were made is not given here.

With `C=CCl`, the carcinogen call is “active; positive” (Species: HAMSTER, Strain/Sex: SYRIAN/MALE, Route: INHALATION, Dose: 0, 50, 250, 500, 2500, 6000, 10000 PPM 4 HR/D, 5 D/WK FOR (STUDY DURATION: 109 WK), Dose: 0, 50, 250, 500, 2500, 6000, 10000 PPM 4 HR/D, 5 D/WK FOR (STUDY DURATION: 109 WK), Tumor Site: Type of Lesion: INTEGUMENTARY SYSTEM (SKIN): EPITHELIOMA, FORESTOMACH: PAPILLOMA OR ACANTHOMA, LIVER: ANGIOMA OR ANGIOSARCOMA, Tumor Site: Type of Lesion: INTEGUMENTARY SYSTEM (SKIN): EPITHELIOMA, FORESTOMACH: PAPILLOMA OR ACANTHOMA, LIVER: ANGIOMA OR ANGIOSARCOMA); “active; positive” (Species: HAMSTER, Strain/Sex: SYRIAN, Route: INHALATION, Tumor Site: Type of Lesion: LIVER); “active; positive” (Species: HUMAN, Route: INHALATION, Tumor Site: Type of Lesion: LIVER, BRAIN, LUNG, Tumor Site: Type of Lesion: LIVER, BRAIN, LUNG); “active; positive” (Species: MOUSE, Strain/Sex: ICR/FEMALE, Route: INHALATION, Dose: 0, 50, 500, 5000, 50000 PPM ONCE FOR 1 HR (STUDY DURATION: 18 MO), Dose: 0, 50, 500, 5000, 50000 PPM ONCE FOR 1 HR (STUDY DURATION: 18 MO), Tumor Site: Type of Lesion: LUNG: ALVEOLAR/BRONCHIOLAR ADENOMA OR CARCINOMA); “active; positive” (Species: MOUSE, Strain/Sex: ICR/MALE, Route: INHALATION, Dose: 0, 50, 500, 5000, 50000 PPM ONCE FOR 1 HR (STUDY DURATION: 18 MO), Dose: 0, 50, 500, 5000, 50000 PPM ONCE FOR 1 HR (STUDY DURATION: 18 MO), Tumor Site: Type of Lesion: LUNG: ALVEOLAR/BRONCHIOLAR ADENOMA OR CARCINOMA); “active; positive” (Species: MOUSE, Strain/Sex: SWISS/MALE,FEMALE, Route: INHALATION, Dose: 0, 50, 250, 500, 2500, 6000, 10000 PPM 4 HR/D, 5 D/WK FOR 30 WK (STUDY DURATION: 81 WK), Dose: 0, 50, 250, 500, 2500, 6000, 10000 PPM 4 HR/D, 5 D/WK FOR 30 WK (STUDY DURATION: 81 WK), Tumor Site: Type of Lesion: LIVER: ANGIOMA, ANGIOSARCOMA, LUNG: TUMOR (NOS), MAMMARY GLAND: CARCINOMA, Tumor Site: Type of Lesion: LIVER: ANGIOMA, ANGIOSARCOMA, LUNG: TUMOR (NOS), MAMMARY GLAND: CARCINOMA). Moreover, the carcinogen call (Species: MOUSE, Strain/Sex: SWISS, Route: INHALATION, Tumor Site: Type of Lesion: LIVER, LUNG, MAMMARY GLAND, Tumor Site: Type of Lesion: LIVER, LUNG, MAMMARY GLAND) is “active; positive”; the carcinogen call (Species: RAT, Route: INHALATION, Tumor Site: Type of Lesion: LIVER, LUNG, KIDNEY, EAR (ZYMBAL GLAND), Tumor Site: Type of Lesion: LIVER, LUNG, KIDNEY, EAR (ZYMBAL GLAND)) is “active; positive”; the carcinogen call (Species: RAT, Strain/Sex: SPRAGUE-DAWLEY/FEMALE, Route: GAVAGE, Dose: 0, 0.03, 0.3, 1, 3.33, 16.65, 50 MG/KG BW IN OLIVE OIL 1/D 4-5 D/WK FOR 52-59 WK (STUDY DURATION: LIFETIME), Dose: 0, 0.03, 0.3, 1, 3.33, 16.65, 50 MG/KG BW IN OLIVE OIL 1/D 4-5 D/WK FOR 52-59 WK (STUDY DURATION: LIFETIME), Tumor Site: Type of Lesion: [BRAIN WAS ONLY SITE EVALUATED]) was “inactive; negative”; the carcinogen call (Species: RAT, Strain/Sex: SPRAGUE-DAWLEY/FEMALE, Route: INHALATION, Dose: 0, 50, 250, 500, 2500, 6000, 10000 PPM IN AIR 4 HR/D 5 D/WK FOR 17 WK (STUDY DURATION: LIFETIME), Dose: 0, 50, 250, 500, 2500, 6000, 10000 PPM IN AIR 4 HR/D 5 D/WK FOR 17 WK (STUDY DURATION: LIFETIME), Tumor Site: Type of Lesion: BRAIN: NEUROBLASTOMA [ONLY SITE EVALUATED]) is “active; positive”; the carcinogen call (Species: RAT, Strain/Sex: SPRAGUE-DAWLEY/FEMALE, Route: INHALATION, Dose: 0, 2500 PPM 4 HR/D 5 D/WK FOR 7 WK THEN 7 HR/D 5 D/WK FOR 8 WK ADMINISTERED TO RAT EMBRYOS BEGINNING ON 12TH DAY OF GEST, Tumor Site: Type of Lesion: LIVER: HEPATOMA, ANGIOSARCOMA, BRAIN: NEUROBLASTOMA) is “active; positive”; the carcinogen call (Species: RAT, Strain/Sex: SPRAGUE-DAWLEY/FEMALE, Route: INHALATION, Dose: 0, 2500 PPM 4 HR/D 5 D/WK FOR 7 WK THEN 7 HR/D 5 D/WK FOR 69 WK ADMINISTERED TO BREEDER RATS (STUDY DURATION: 76 WK), Tumor Site: Type of Lesion: BRAIN: NEUROBLASTOMA, LIVER, HEPATOCARCINOMA, ANGIOSARCOMA, Tumor Site: Type of Lesion: BRAIN: NEUROBLASTOMA, LIVER, HEPATOCARCINOMA, ANGIOSARCOMA) is “active; positive”. In addition, the carcinogen call (Species: RAT, Strain/Sex: SPRAGUE-DAWLEY/FEMALE, Route: INHALATION, Dose: 0, 2500 PPM 4 HR/D 5 D/WK FOR 7 WK THEN 7 HR/D 5 D/WK FOR 69 WK ADMINISTERED TO RAT EMBRYOS BEGINNING ON 12TH DAY OF GES, Tumor Site: Type of Lesion: BRAIN: NEUROBLASTOMA, LIVER, HEPATOCARCINOMA, ANGIOSARCOMA, Tumor Site: Type of Lesion: BRAIN: NEUROBLASTOMA, LIVER, HEPATOCARCINOMA, ANGIOSARCOMA) was “active; positive” and the carcinogen call (Species: RAT, Strain/Sex: SPRAGUE-DAWLEY/FEMALE, Route: INHALATION, Dose: 0, 6000, 10000 PPM IN AIR 1 HR/D 4 D/WK FOR 25 WK (STUDY DURATION: LIFETIME), Dose: 0, 6000, 10000 PPM IN AIR 1 HR/D 4 D/WK FOR 25 WK (STUDY DURATION: LIFETIME), Tumor Site: Type of Lesion: [BRAIN WAS ONLY SITE EVALUATED]) is “inactive; negative”.

Source of the values: PubChem BioAssay AID1259411 (Chemical Carcinogenesis Research Information System (CCRIS), 2018).
